Where “and” joins values, the source holds several entries; their conditions need not be identical. Equal values may be shown once. Read-outs that look alike come from different tables or passages of the source.
Key:
H2444 = test: Dose response study (Alamar Blue), H2444; format: cell-based; details: Homo sapiens, NCI-H2444; H2444; 12 point doubling dilution 10 uM to 5 nM; 48 h treatment, alamar blue additional 48 h; read-out: IC50 H2444
Description: (§1) Dose response studies against 34 compounds from the pyridazinone and phenylfuran-carboxamide class were conducted. […] In addition, Tarceva was included in these dose response studies.
(§2) The dose response studies were done with the following standard procedure. First, the cells were counted and dispensed at 250 cells/well into 384-well microplates with compound. The cells were incubated for 48 hours at 37 C to complete treatment, and then alamar blue was added for an additional 48 hours. Finally, alamar blue reduction was measured and the data was loaded into ORIS, our data screening acquisition platform.

H3255 = test: Non Small Cell Lung Cancer proliferation assay (Alamar Blue reduction), H3255; format: cell-based, human; details: for inhibition at 10 µM: NCI-H3255, primary screening, read-out: PRIMARY HTS [%] H3255 (percentage inhibition); for inhibition at 10 µM / CONFIRMATION [%] 3255: 10 μM compound in 1% DMSO (v/v); for CONFIRMATION [%] 3255: percentage inhibition
Summary of the method: (§3)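 Human NSCLC cells were seeded at 250 cells/well with compound at a final 1% DMSO and treated for 48 hours at 37° C. 1% DMSO served as the high control.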

[1] = system: HPL1D (human peripheral lung epithelial) cell line; test: Cell proliferation / dose response (Alamar Blue), HPL1D; format: cell-based; details: HPL1D, 12 point doubling dilution 10 uM to 5 nM, 48 h treatment, alamar blue additional 48 h, read-out: IC50 HPL1D
Description: WI-38: human lung fibroblast cell line. […] WT: wildtype; WT*: over-expressed wildtype. Dose response studies against 34 compounds from the pyridazinone and phenylfuran-carboxamide class were conducted. […] In addition, Tarceva was included in these dose response studies. The dose response studies were done with the following standard procedure. […] The cells were incubated for 48 hours at 37 C to complete treatment, and then alamar blue was added for an additional 48 hours. Finally, alamar blue reduction was measured and the data was loaded into ORIS, our data screening acquisition platform.

H460 = test: Dose response study (Alamar Blue), H460; format: cell-based; details: Homo sapiens, NCI-H460; H460; 12 point doubling dilution 10 uM to 5 nM; 48 h treatment, alamar blue additional 48 h; read-out: IC50 H460
Description: as §1, §2

H1650 = test: Non Small Cell Lung Cancer proliferation assay (Alamar Blue reduction), H1650; format: cell-based, human; details: for inhibition at 10 µM: NCI-H1650, primary screening, read-out: PRIMARY HTS [%] H1650 (percentage inhibition); for inhibition at 10 µM / CONFIRMATION [%] 1650: 10 μM compound in 1% DMSO (v/v); for CONFIRMATION [%] 1650: percentage inhibition
Summary of the method: as §3

H2122 = test: Dose response study (Alamar Blue), H2122; format: cell-based; details: Homo sapiens, NCI-H2122; H2122; 12 point doubling dilution 10 uM to 5 nM; 48 h treatment, alamar blue additional 48 h; read-out: IC50 H2122
Description: as §1, §2

A549 = test: Dose response study (Alamar Blue), A549; format: cell-based; details: Homo sapiens; A549; 12 point doubling dilution 10 uM to 5 nM; 48 h treatment, alamar blue additional 48 h; read-out: IC50 A549
Description: as §1, §2

PC9 = test: Dose response study (Alamar Blue), PC9; format: cell-based; details: Homo sapiens, PC-9; PC9; 12 point doubling dilution 10 uM to 5 nM; 48 h treatment, alamar blue additional 48 h; read-out: IC50 PC9
Description: as §1, §2

H820 = test: Dose response study (Alamar Blue), H820; format: cell-based; details: Homo sapiens, NCI-H820; H820; 12 point doubling dilution 10 uM to 5 nM; 48 h treatment, alamar blue additional 48 h; read-out: IC50 H820
Description: as §1, §2

H2030 = test: Non Small Cell Lung Cancer proliferation assay (Alamar Blue reduction), H2030; format: cell-based, human; details: for inhibition at 10 µM: NCI-H2030, primary screening, read-out: PRIMARY HTS [%] H2030 (percentage inhibition); for inhibition at 10 µM / CONFIRMATION [%] 2030: 10 μM compound in 1% DMSO (v/v); for CONFIRMATION [%] 2030: percentage inhibition
Summary of the method: as §3

H23 = test: Dose response study (Alamar Blue), H23; format: cell-based; details: Homo sapiens, NCI-H23; H23; 12 point doubling dilution 10 uM to 5 nM; 48 h treatment, alamar blue additional 48 h; read-out: IC50 H23
Description: as §1, §2

H358 = test: Non Small Cell Lung Cancer proliferation assay (Alamar Blue reduction), H358; format: cell-based; details: Homo sapiens, NCI-H358; H358; 12 point doubling dilution 10 uM to 5 nM; 48 h treatment, alamar blue additional 48 h; read-out: IC50 H358
Description: (§4) These cells have a doubling time of 1-2 days. All cell types are adherent and grow in colonies. The cells should be kept at a density between 50,000 cells/mL -500,000 cells/mL to provide for optimum growth and adequate nutrition. The cell line should be maintained at 37° C. in a humidified atmosphere with 5% CO2 in a sterile cell culture incubator.
(§5) Non Small Cell Lung Cancer Proliferation Assay.
(§6) High Controls for this assay are made by treating Non Small Cell Lung Cancer cells with 5 ul of 10% DMSO. [Final concentration in this assay is 1% DMSO].
(§7) Important Note: All compounds for testing in this assay should be done at the final concentration of 1% DMSO.
(§8) After addition, the cells are placed in cell culture incubator at 37° C. for 48 hours for complete treatment.
(§9) After drug treatment, cytotoxicity is measured by Alamar Blue reduction.
(§10) The cells are incubated for 48 hours at 37° C. to complete the Alamar Blue reduction.
(§11) The final step in the assay is to measure the amount of Alamar Blue reduction. […] The Alamar Blue fluorescence is measured at an excitation of 530 nm and emission of 590 nm.
(§12) For the NSCLC project, the cell based assay was screened against a small molecule library of approximately 200,000 compounds. The compound library is stored in our automated robotic freezer (Biophile) at −20° C. in 100% DMSO. Compound freeze and thaw cycles are kept to a minimum. […] This assay was performed on a fully automated linear track robotic platform (CRS F3 Robot System, Thermo Electron Corp., Ontario, Canada) utilizing several integrated peripherals for plate handling, liquid dispensing, and readout detection. […] The microplates are then placed at 37° C. for 48 hours to complete treatment of cells with compounds. Next, 5 ul of alamar blue was added using a liquid dispenser (Flexprop Precision Dispenser, Perkin Elmer, Mass., USA) and incubated for 48 hours at 37° C. The alamar blue prompt fluorescence was measured on Victor V (Victor^3 V, Perkin Elmer, Mass., USA) and output data files were loaded into ORIS (Oncology Research Informatics System, MSKCC, NY, USA), a screening data acquisition and analysis platform.
as §2

H1734 = test: Non Small Cell Lung Cancer proliferation assay (Alamar Blue reduction), H1734; format: cell-based, human; details: Homo sapiens, NCI-H1734; H1734; 12 point doubling dilution 10 uM to 5 nM; 48 h treatment, alamar blue additional 48 h; read-out: IC50 H1734
Description: as §4, §5, §6, §7, §8, §9, §10, §11, §12, §2

[2] = Homo sapiens, NCI-H3255, 48 h, H3255, 12 point doubling dilution 10 uM to 5 nM, 48 h treatment, alamar blue additional 48 h, read-out: IC50 H3255
[3] = Homo sapiens, NCI-H3255, phenylfuran-2-carboxamide SAR summary, read-out: IC50(uM) 3255
[4] = Homo sapiens, NCI-H1650, 48 h, H1650, 12 point doubling dilution 10 uM to 5 nM, 48 h treatment, alamar blue additional 48 h, read-out: IC50 H1650
[5] = Homo sapiens, NCI-H1650, phenylfuran-2-carboxamide SAR summary, read-out: IC50(uM) 1650
[6] = Homo sapiens, NCI-H2030, 48 h, H2030, 12 point doubling dilution 10 uM to 5 nM, 48 h treatment, alamar blue additional 48 h, read-out: IC50 H2030
[7] = Homo sapiens, NCI-H2030, phenylfuran-2-carboxamide SAR summary, read-out: IC50(uM) 2030

IC50 (H2444) [nM] | IC50 (H3255; [2]) [µM] | IC50 (H3255; [3]) [µM] | IC50 (H460) [nM] | IC50 (H1650; [4]) [µM] | IC50 (H1650; [5]) [µM] | IC50 (H2122) [nM] | IC50 (A549) [nM] | IC50 (PC9) [nM] | IC50 (H820) [nM] | IC50 (H2030; [6]) [µM] | IC50 (H2030; [7]) [µM] | SMILES | inhibition at 10 µM (H3255; Homo sapiens, H3255) [%] | CONFIRMATION [%] 3255 (H3255) | IC50 [1] [nM] | inhibition at 10 µM (H1650; Homo sapiens, H1650) [%] | CONFIRMATION [%] 1650 (H1650) | inhibition at 10 µM (H2030; Homo sapiens, H2030) [%] | CONFIRMATION [%] 2030 (H2030) [%] | IC50 (H23) [nM] | also measured
3800 | 2.41 | 0.95 | 1850 | 0.63 | 0.43 | 4830 | 1460 | 1890 | 3610 | 0.99 | 1.43 | Cc1cccc(NC(=O)c2ccc([N+](=O)[O-])o2)c1 [compound 71762] | 100 | 122% and 97% | > 10000 | 104 | 135% and 106% | 101 | 103 | 830 | IC50 (H3255; phenylfuran-2-carboxamide SAR summary, read-out: IC50(uM) 3255): 1.01 µM; IC50 (H1650; phenylfuran-2-carboxamide SAR summary, read-out: IC50(uM) 1650): 0.41 µM; IC50 (H2030; phenylfuran-2-carboxamide SAR summary, read-out: IC50(uM) 2030): 1.46 µM; IC50 (H358): 1270 nM; IC50 (H1734): 4880 nM
> 10000 | > 10 | 0.69 | > 10000 | 7.49 | 0.29 | > 10000 | > 10000 | 8670 | > 10000 | 8.51 | 1.01 | O=C(Nc1ccc(F)c(Cl)c1)c1ccc([N+](=O)[O-])o1 [compound 87200] | 6 | 103% | > 10000 | 103 | 112% | 23 | 107 | 4550 | IC50 (H358): 7170 nM; IC50 (H1734): > 10000 nM

Reference: US20100210649A1, “PYRIDAZINONES AND FURAN-CONTAINING COMPOUNDS” (Sloan-Kettering Institute for Cancer Research, priority 2006, published 2010)
